Results taken from ChEMBL document CHEMBL5120779, “Thiazolidinedione-Based Structure Modification of Celastrol Provides Thiazolidinedione-Conjugated Derivatives as Potent Agents against Non-Small-Cell Lung Cancer Cells through a Mitochondria-Mediated Apoptotic Pathway” (J Nat Prod, 2022).
pIC50: −log10 of the molar value. Active and inactive are the calls of the source. The rule behind the calls is not given here.

Assays:
A549 [1] = experiment: Induction of apoptosis in human A549 cells assessed as early apoptotic cells at 0.5 uM incubated for 48 hrs by Annexin V-FITC/propidium iodide staining based flow cytometry (reference value: 0.11%); assay type: functional
A549 [2] = experiment: Induction of apoptosis in human A549 cells assessed as increase in Bax protein expression at 0.25 to 4 uM incubated for 48 hrs by western blot analysis; assay type: functional, cell-based; details: dose 0.25-4 µM
A549 [3] = experiment: Induction of apoptosis in human A549 cells assessed as viable cells at 0.25 uM incubated for 48 hrs by Annexin V-FITC/propidium iodide staining based flow cytometry (reference value: 95.7%); assay type: functional; details: read-out: Activity
A549 [4] = experiment: Induction of apoptosis in human A549 cells assessed as necrotic cells at 0.125 uM incubated for 48 hrs by Annexin V-FITC/propidium iodide staining based flow cytometry (reference value: 3.36%); assay type: functional
A549 [5] = experiment: Cytotoxicity against human A549 cells assessed as inhibition of cell proliferation at 0.1 uM pretreated for 2 hrs with autophagy inhibitor, 3-methyladenine followed by incubation with compound and measured after 48 hrs by MTT assay; assay type: functional, cell-based
A549 [6] = experiment: Anti-tumor activity against human A549 cells xenografted in BALB/c mouse assessed as reduction in tumor weight at 2 mg/kg, iv administered every 2 days for 13 days; assay type: functional; details: A549, 312 h, time 13 day
A549 [7] = experiment: Induction of mitochondrial membrane potential depolarization in human A549 cells assessed as proportion of cells with intact mitochondria by measuring red fluorescent J-aggregates at 0.125 uM incubated for 48 hrs by JC-1 staining based flow cytometry (reference value: 63.9%); assay type: functional
[8] = Cytotoxicity against human MRC5 cells assessed as inhibition of cell growth measured after 96 hrs by MTT assay; assay type: toxicity, cell-based
A549 [9] = experiment: Induction of apoptosis in human A549 cells assessed as late apoptotic cells at 0.5 uM incubated for 48 hrs by Annexin V-FITC/propidium iodide staining based flow cytometry (reference value: 0.82%); assay type: functional
A549 [10] = experiment: Induction of apoptosis in human A549 cells assessed as viable cells at 0.5 uM incubated for 48 hrs by Annexin V-FITC/propidium iodide staining based flow cytometry (reference value: 95.7%); assay type: functional; details: read-out: Activity
A549 [11] = experiment: Induction of apoptosis in human A549 cells assessed as decrease in Bcl-2 protein expression at 0.25 to 4 uM incubated for 48 hrs by western blot analysis; assay type: functional, cell-based; details: dose 0.25-4 µM
A549 [12] = experiment: Anti-tumor activity against human A549 cells xenografted in BALB/c mouse assessed as reduction in tumor weight at 4 mg/kg, iv administered every 2 days for 13 days; assay type: functional; details: A549, 312 h, time 13 day
A549 [13] = experiment: Induction of mitochondrial membrane potential depolarization in human A549 cells assessed as proportion of cells with depolarized mitochondria by measuring green fluorescent J-monomers at 0.125 uM incubated for 48 hrs by JC-1 staining based flow cytometry (reference value: 34.2%); assay type: functional
A549 [14] = experiment: Anti-tumor activity against human A549 cells xenografted in iv dosed BALB/c mouse assessed as reduction in tumor growth administered every 2 days for 13 days; assay type: functional, organism-based; details: dose 2-8 mg/kg, time 13.0 day, DDE = dose-dependent effect
A549 [15] = experiment: Induction of apoptosis in human A549 cells assessed as increase in cleaved caspase-9 expression incubated for 48 hrs by western blot analysis; assay type: functional, cell-based; details: dose 0.25-4 µM, DDE = dose-dependent effect
A549 [16] = experiment: Induction of apoptosis in human A549 cells assessed as viable cells at 0.125 uM incubated for 48 hrs by Annexin V-FITC/propidium iodide staining based flow cytometry (reference value: 95.7%); assay type: functional; details: read-out: Activity
A549 [17] = experiment: Induction of apoptosis in human A549 cells assessed as increase in cleaved caspase-8 expression at 0.25 to 4 uM incubated for 48 hrs by western blot analysis; assay type: functional, cell-based; details: dose 0.25-4 µM
A549 [18] = experiment: Cytotoxicity against human A549 cells assessed as inhibition of cell proliferation at 0.1 uM pretreated for 2 hrs with necroptosis inhibitor, necrostatin-1 followed by incubation with compound and measured after 48 hrs by MTT assay; assay type: functional, cell-based
A549 [19] = experiment: Induction of apoptosis in human A549 cells assessed as late apoptotic cells at 0.25 uM incubated for 48 hrs by Annexin V-FITC/propidium iodide staining based flow cytometry (reference value: 0.82%); assay type: functional
A549 [20] = experiment: Induction of mitochondrial membrane potential depolarization in human A549 cells assessed as proportion of cells with intact mitochondria by measuring red fluorescent J-aggregates at 0.5 uM incubated for 48 hrs by JC-1 staining based flow cytometry (reference value: 63.9%); assay type: functional
A549 [21] = experiment: Induction of apoptosis in human A549 cells assessed as early apoptotic cells at 0.25 uM incubated for 48 hrs by Annexin V-FITC/propidium iodide staining based flow cytometry (reference value: 0.11%); assay type: functional
A549 [22] = experiment: Induction of apoptosis in human A549 cells assessed as early apoptotic cells at 0.125 uM incubated for 48 hrs by Annexin V-FITC/propidium iodide staining based flow cytometry (reference value: 0.11%); assay type: functional
A549 [23] = experiment: Induction of apoptosis in human A549 cells assessed as necrotic cells at 0.25 uM incubated for 48 hrs by Annexin V-FITC/propidium iodide staining based flow cytometry (reference value: 3.36%); assay type: functional
A549 [24] = experiment: Induction of apoptosis in human A549 cells assessed as nuclear fragmentation and chromatin condensation incubated for 48 hrs by Hoechst 33342 staining based fluorescence microscopic analysis; assay type: functional, cell-based; details: dose 0.25-0.5 µM, DDE = dose-dependent effect
A549 [25] = experiment: cells; details: Homo sapiens, A549, 96 h
Description: Cytotoxicity against human A549 cells assessed as inhibition of cell growth measured after 96 hrs by MTT assay

A549 [26] = experiment: Induction of apoptosis in human A549 cells assessed as increase in cleaved caspase-3 expression incubated for 48 hrs by western blot analysis; assay type: functional, cell-based; details: dose 0.25-4 µM, DDE = dose-dependent effect
A549 [27] = experiment: Induction of apoptosis in human A549 cells assessed as necrotic cells at 0.5 uM incubated for 48 hrs by Annexin V-FITC/propidium iodide staining based flow cytometry (reference value: 3.36%); assay type: functional
[28] = Stability of the compound in DMEM culture medium at 100 ug/ml measured after 72 hrs by HPLC analysis; assay type: physicochemical; details: at 100 µg/mL
A549 [29] = experiment: Induction of mitochondrial membrane potential depolarization in human A549 cells assessed as proportion of cells with intact mitochondria by measuring red fluorescent J-aggregates at 0.25 uM incubated for 48 hrs by JC-1 staining based flow cytometry (reference value: 63.9%); assay type: functional
A549 [30] = experiment: Cytotoxicity against human A549 cells assessed as inhibition of cell proliferation at 0.125 to 2 uM by MTT assay; assay type: functional, cell-based; details: dose 0.125-2 µM, time 24-72 hrs, TDE = time-dependent effect
A549 [31] = experiment: Induction of mitochondrial membrane potential depolarization in human A549 cells assessed as proportion of cells with depolarized mitochondria by measuring green fluorescent J-monomers at 0.25 uM incubated for 48 hrs by JC-1 staining based flow cytometry (reference value: 34.2%); assay type: functional
A549 [32] = experiment: Induction of apoptosis in human A549 cells assessed as late apoptotic cells at 0.125 uM incubated for 48 hrs by Annexin V-FITC/propidium iodide staining based flow cytometry (reference value: 0.82%); assay type: functional
A549 [33] = experiment: Anti-tumor activity against human A549 cells xenografted in BALB/c mouse assessed as reduction in tumor weight at 8 mg/kg, iv administered every 2 days for 13 days; assay type: functional; details: A549, 312 h, time 13 day
A549 [34] = experiment: Cytotoxicity against human A549 cells assessed as inhibition of cell proliferation measured after 24 to 72 hrs by MTT assay; assay type: functional, cell-based; details: dose 0.125-2 µM, time 24-72 hrs, DDE = dose-dependent effect
A549 [35] = experiment: Induction of apoptosis in human A549 cells assessed as increase in cleaved PARP expression incubated for 48 hrs by western blot analysis; assay type: functional, cell-based; details: dose 0.25-4 µM, DDE = dose-dependent effect
A549 [36] = experiment: Anti-tumor activity against human A549 cells xenografted in BALB/c mouse assessed as reduction in tumor volume at 2 to 8 mg/kg, iv administered every 2 days for 13 days; assay type: functional, organism-based; details: dose 2-8 mg/kg, time 13.0 day
A549 [37] = experiment: Induction of mitochondrial membrane potential depolarization in human A549 cells assessed as proportion of cells with depolarized mitochondria by measuring green fluorescent J-monomers at 0.5 uM incubated for 48 hrs by JC-1 staining based flow cytometry (reference value: 34.2%); assay type: functional
[38] = Toxicity in BALB/c mouse xenografted with human A549 cells assessed as body weight loss at 2 to 8 mg/kg, iv administered every 2 days for 13 days; assay type: organism-based; details: in vivo, 312 h, dose 2-8 mg/kg, time 13 day
[39] = Selectivity index, ratio of IC50 for human MRC5 cells to IC50 for human A549 cells; assay type: toxicity; details: MRC5 cells and A549 cells, read-out: Ratio IC50
A549 [40] = experiment: Potency index, ratio of celastrol IC50 to test compound IC50 for cytotoxicity against human A549 cells by MTT assay; assay type: functional

With CC1=C(O)C(=O)C=C2C1=CC=C1[C@@]2(C)CC[C@@]2(C)[C@@H]3C[C@](C)(C(=O)N4CCN(C(=O)CN5C(=O)S/C(=C\C6CC6)C5=O)CC4)CC[C@]3(C)CC[C@]12C the Activity (A549 [1]) was 3.73%, the Activity (A549 [2]) was “Active” and the viability at 0.25 µM (A549 [3]) was 71.8%. The Activity (A549 [4]) was 4.59%, the Activity (A549 [5]) was “Active” and the inhibition in vivo at 2 mg/kg (A549 [6]) was 48.8%. The Activity (A549 [7]) was 60.2%, the IC50 at 96 h [8] was 3.02 µM and the Activity (A549 [9]) was 29.5%. The viability at 0.5 µM (A549 [10]) was 59.8%, the Activity (A549 [11]) was “Active” and the inhibition in vivo at 4 mg/kg (A549 [12]) was 64.4%. For the same compound, the Activity (A549 [13]) was 38.2%, the Activity (A549 [14]) was “Dde” and the Activity (A549 [15]) was “Dde”. The viability at 0.125 µM (A549 [16]) was 85.8%, the Activity (A549 [17]) was “Active” and the Activity (A549 [18]) was “Active”. It also gave an Activity (A549 [19]) of 19.6%, an Activity (A549 [20]) of 51.7% and an Activity (A549 [21]) of 2.68%. The Activity (A549 [22]) was 1.9%, the Activity (A549 [23]) was 5.86% and the Activity (A549 [24]) was “Dde”. The pIC50 (A549 [25]) was 7.10, the Activity (A549 [26]) was “Dde” and the Activity (A549 [27]) was 6.96%. The Stability [28] was “Stable”, the Activity (A549 [29]) was 56% and the Activity (A549 [30]) was “Tde”. For the same compound, the Activity (A549 [31]) was 42.3%, the Activity (A549 [32]) was 7.71% and the inhibition in vivo at 8 mg/kg (A549 [33]) was 69.5%. The Activity (A549 [34]) was “Dde”, the Activity (A549 [35]) was “Dde” and the Activity (A549 [36]) was “Active”. The Activity (A549 [37]) was 46.4%, the Activity [38] was “Non-Toxic” and the selectivity ratio [39] was 37.8. The “Ratio IC50” value (A549 [40]) was 13.8.
